From patent US8361929B2, “Method of restoring male sterility in gramineous plants and male sterility restorative agent” (Tohoku University, priority 2009, dated 2013)
“Also recorded” adds a separate entry of the source.

Tests used:
Format in all cases: in vivo
[1] = tested on: barley (Hordeum vulagare L. cv Haruna-nijo); assay: Anther length at heading stage after spreading auxin aqueous solutions; conditions: control groups (suitable temperature cultivation); 10^−6 M, 10^−5 M or 10^−4 M
Source text: (§1) In an experiment to verify the effect of an auxin, the above-described nursery soil for horticultural was used. In addition, to facilitate the control of an auxin aqueous solution treatment, each pair of two rectangular planter boxes (60 mm×60 mm×100 mm (length×width×height), AGC TECHNO GLASS CO., LTD., Plant Box (Model No. CUL-JAR300)) were vertically stacked on each other. A hole having a diameter of about 1 cm was formed at the bottom center of the upper box. A 6-cm wick for an alcohol lamp with a knot was passed through the hole. Then, 300 ml of vermiculite (NITTAI Co., Ltd., vermiculite for agricultural and horticultural use) was packed thereabove. In the lower box, 0.2% (v/v) of HYPONEX (HYPONeX JAPAN CORP., LTD.) was placed as a nutrient water source for plants. Seeds of Hordeum vulagare L. cv Haruna-nijo having been stored in the dark at 4° C. were stimulated to germinate in the dark at 25° C. for 48 hours. The germinated seeds were sown at four seeds per pot at the four corners of the upper container. These sown seeds were grown in an artificial climate chamber (Nippon Medical & Chemical Instruments Co., Ltd., BIOTRON LH300RDS) under conditions of 20° C. during the day, 15° C. at night, and a 16-hour photoperiod. As the light source, 20 plant growing fluorescent tubes were used (16 tubes; National FL40S FR-P, and 4 tubes; National, FL20S FR-P).
(§2) Also in this cultivation method, the fifth leaves emerge and start to develop on Day 18 or 19 after the sowing as in the case where the culture soil was used, where the day of the sowing is regarded as Day 0. The plants were cultivated under high-temperature conditions of 30° C. during the day, 25° C. at night, and a 16-hour photoperiod from Day 19 after the sowing. Thus, a high-temperature treatment was conducted for five days (120 hours). Thereafter (on Day 24 after the sowing), the conditions were changed back to the normal conditions of 20° C. during the day, 15° C. at night, and a 16-hour photoperiod. […]

[2] = tested on: barley (Hordeum vulagare L. cv Haruna-nijo); assay: Pollen maturity, potassium iodide staining of anthers; conditions: control groups (suitable temperature cultivation); 10^−6 M, 10^−5 M or 10^−4 M
Source text: as §1, §2

[3] = tested on: barley (Hordeum vulagare L. cv Haruna-nijo); assay: Side effects of spread auxin on the plants (leaf withering)
Source text: as §1
Also in this cultivation method, the fifth leaves emerge and start to develop on Day 18 or 19 after the sowing as in the case where the culture soil was used, where the day of the sowing is regarded as Day 0. The plants were cultivated under high-temperature conditions of 30° C. during the day, 25° C. at night, and a 16-hour photoperiod from Day 19 after the sowing. Thus, a high-temperature treatment was conducted for five days (120 hours). Thereafter (on Day 24 after the sowing), the conditions were changed back to the normal conditions of 20° C. during the day, 15° C. at night, and a 16-hour photoperiod.
First, 10^−3 M, 10^−2 M, and 10^−1 M stock solutions in dimethyl sulfoxide (DMSO: Wako Pure Chemical Industries, Ltd., Production Code: 043-07216) were prepared by using each of indole-3-acetic acid (IAA: Wako Pure Chemical Industries, Ltd., Production Code: 94-00183), 1-naphthyl acetic acid (NAA: Wako Pure Chemical Industries, Ltd., Production Code: 148-00092), and 2,4-dichlorophenoxyacetic acid (2,4-D: Wako Pure Chemical Industries, Ltd., Production Code: 040-18532). The stock solutions were stored in the dark at −20° C. until used. These stock solutions were thawed immediately before spread, and each were diluted 1000-fold with distilled water. Thus, solutions were prepared at three levels of 10^−6 M, 10^−5 M, and 10^−4 M, and used as auxin aqueous solutions. […]

[4] = tested on: barley (Hordeum vulagare L. cv Haruna-nijo); assay: Seed fertility (seeds produced in panicles) after auxin spreading; conditions: for seeds produced in panicles: high-temperature treated groups, 10^−4 M
Source text: as §1, §2

[5] = high-temperature treated samples, 10^−4 M

Structure (SMILES): O=C(O)COc1ccc(Cl)cc1Cl [2,4-D, 2,4-dichlorophenoxyacetic acid]
- change of anther length at heading stage [1]: change was hardly observed
- pollen formation [2]: formed normally
- negative effect on the plants (leaves) ([3]; control groups (suitable temperature cultivation), 10^−4 M): leaves stared to wither at an early stage
- negative effect / side effects on the plants [3, 5]: leaves started to wither at an early stage; also recorded: withering up at the early stage

Structure (SMILES): O=C(O)Cc1c[nH]c2ccccc12 [IAA, indole-3-acetic acid]
- change of anther length at heading stage [1]: change was hardly observed
- pollen formation [2]: formed normally
- seeds produced in panicles [4]: ~90%
- negative effect / side effects on the plants ([3]; in vivo): side effects were hardly observed

Structure (SMILES): O=C(O)Cc1cccc2ccccc12 [NAA, 1-naphthyl acetic acid]
- change of anther length at heading stage [1]: change was hardly observed
- pollen formation [2]: formed normally
- seeds produced in panicles [4]: ~90%
- seed fertility restoration (FIG. 10) ([4]; individual of high-temperature treated group, spread at 10^−4 M): seed fertility restoration
- negative effect / side effects on the plants [3, 5]: side effects were hardly observed
